Values of other authors, collected in PubChem BioAssay AID1259409 (Chemical Carcinogenesis Research Information System (CCRIS), 2018).

System: rodent chemically induced tumor inhibition, incidence and multiplicity
Assay: CCRIS tumor inhibitor studies
Details: Carcinogen: N-NITROSOBIS(2-OXYPROPYL)AMINE, 60599-38-4, Route [Inhibitor]: ORAL, Species: HAMSTER, Promoter: NONE USED

Q: Which “tumour outcome (control, treated, inhibition, significance)” value (Dose [Inhibitor]: 0.05, 0.1 OR 0.2 MILLIMOLAR/KG DIET FOR 32 WK STARTING 1 WK AFTER THE CARCINOGEN DOSE (STUDY DURATION: 33 WK), Strain/Sex: SYRIAN/FEMALE, Target Tissue: Type of Lesion: COMMON DUCT: ADENOMA, Dose [Carcinogen]: 40 MG/KG ONCE) does the source give for CC1=C(/C=C/C(C)=C/C=C/C(C)=C/C(=O)NCCO)C(C)(C)CCC1 here?
A: 4/10 (40%), 19/29 (66%), -65%, not significant

Q: What about the “tumour outcome (control, treated, inhibition, significance)” value (Dose [Inhibitor]: 0.05, 0.1 OR 0.2 MILLIMOLAR/KG DIET FOR 32 WK STARTING 1 WK AFTER THE CARCINOGEN DOSE (STUDY DURATION: 33 WK), Strain/Sex: SYRIAN/FEMALE, Target Tissue: Type of Lesion: GALL BLADDER: ADENOMA, Dose [Carcinogen]: 40 MG/KG ONCE) of the same compound?
A: 6/10 (60%), 17/29 (59%), 2%, not significant

Q: And the “tumour outcome (control, treated, inhibition, significance)” value (Dose [Inhibitor]: 0.05, 0.1 OR 0.2 MILLIMOLAR/KG DIET FOR 32 WK STARTING 1 WK AFTER THE CARCINOGEN DOSE (STUDY DURATION: 33 WK), Strain/Sex: SYRIAN/FEMALE, Target Tissue: Type of Lesion: LUNG: ADENOMA, Dose [Carcinogen]: 40 MG/KG ONCE)?
A: 3/10 (30%), 4/29 (14%), 53%, p<0.025

Q: And the “tumour outcome (control, treated, inhibition, significance)” value (Dose [Inhibitor]: 0.05, 0.1 OR 0.2 MILLIMOLAR/KG DIET FOR 32 WK STARTING 1 WK AFTER THE CARCINOGEN DOSE (STUDY DURATION: 33 WK), Strain/Sex: SYRIAN/FEMALE, Target Tissue: Type of Lesion: PANCREAS: ADENOMA, Dose [Carcinogen]: 40 MG/KG ONCE)?
A: 10/10 (100%), 29/29 (100%), 0%, not significant

Q: And the “tumour outcome (control, treated, inhibition, significance)” value (Dose [Inhibitor]: 0.05, 0.1 OR 0.2 MILLIMOLAR/KG DIET FOR 32 WK STARTING 1 WK AFTER THE CARCINOGEN DOSE (STUDY DURATION: 33 WK), Strain/Sex: SYRIAN/FEMALE, Target Tissue: Type of Lesion: PANCREAS: CARCINOMA, Dose [Carcinogen]: 40 MG/KG ONCE)?
A: 4/10 (40%), 15/29 (52%), -30%, not significant

Q: What about the “tumour outcome (control, treated, inhibition, significance)” value (Dose [Inhibitor]: 0.05, 0.1 OR 0.2 MILLIMOLAR/KG DIET FOR 32 WK STARTING 1 WK AFTER THE CARCINOGEN DOSE (STUDY DURATION: 33 WK), Strain/Sex: SYRIAN/MALE, Target Tissue: Type of Lesion: COMMON DUCT: ADENOMA, Dose [Carcinogen]: 40 MG/KG ONCE) of the same compound?
A: 4/12 (33%), 23/29 (79%), -139%, not significant

Q: What about the “tumour outcome (control, treated, inhibition, significance)” value (Dose [Inhibitor]: 0.05, 0.1 OR 0.2 MILLIMOLAR/KG DIET FOR 32 WK STARTING 1 WK AFTER THE CARCINOGEN DOSE (STUDY DURATION: 33 WK), Strain/Sex: SYRIAN/MALE, Target Tissue: Type of Lesion: GALL BLADDER: ADENOMA, Dose [Carcinogen]: 40 MG/KG ONCE) of the same compound?
A: 3/12 (25%), 17/29 (59%), -136%, not significant

Q: And the “tumour outcome (control, treated, inhibition, significance)” value (Dose [Inhibitor]: 0.05, 0.1 OR 0.2 MILLIMOLAR/KG DIET FOR 32 WK STARTING 1 WK AFTER THE CARCINOGEN DOSE (STUDY DURATION: 33 WK), Strain/Sex: SYRIAN/MALE, Target Tissue: Type of Lesion: LIVER: ADENOMA, Dose [Carcinogen]: 40 MG/KG ONCE)?
A: 6/12 (50%), 8/29 (28%), 44%, not significant

Q: And the “tumour outcome (control, treated, inhibition, significance)” value (Dose [Inhibitor]: 0.05, 0.1 OR 0.2 MILLIMOLAR/KG DIET FOR 32 WK STARTING 1 WK AFTER THE CARCINOGEN DOSE (STUDY DURATION: 33 WK), Strain/Sex: SYRIAN/MALE, Target Tissue: Type of Lesion: LUNG: ADENOMA, Dose [Carcinogen]: 40 MG/KG ONCE)?
A: 1/12 (8%), 5/29 (17%), -113%, not significant

Q: And the “tumour outcome (control, treated, inhibition, significance)” value (Dose [Inhibitor]: 0.05, 0.1 OR 0.2 MILLIMOLAR/KG DIET FOR 32 WK STARTING 1 WK AFTER THE CARCINOGEN DOSE (STUDY DURATION: 33 WK), Strain/Sex: SYRIAN/MALE, Target Tissue: Type of Lesion: PANCREAS: ADENOMA, Dose [Carcinogen]: 40 MG/KG ONCE)?
A: 12/12 (100%), 29/29 (100%), 0%, not significant

Q: What about the “tumour outcome (control, treated, inhibition, significance)” value (Dose [Inhibitor]: 0.05, 0.1 OR 0.2 MILLIMOLAR/KG DIET FOR 32 WK STARTING 1 WK AFTER THE CARCINOGEN DOSE (STUDY DURATION: 33 WK), Strain/Sex: SYRIAN/MALE, Target Tissue: Type of Lesion: PANCREAS: CARCINOMA, Dose [Carcinogen]: 40 MG/KG ONCE) of the same compound?
A: 6/12 (50%), 10/29 (34%), 32%, not significant

Q: And the “tumour outcome (control, treated, inhibition, significance)” value (Dose [Inhibitor]: 0.05, 0.1 OR 0.2 MM/KG DIET FOR 32 WK STARTING 1 WK AFTER THE CARCINOGEN DOSE (STUDY DURATION: 33 WK), Strain/Sex: SYRIAN/FEMALE, Target Tissue: Type of Lesion: PANCREAS: ADENOCARCINOMA, Dose [Carcinogen]: 40 MG/KG, ONCE, ONE WK PRIOR TO START OF AGENT TREATMENT)?
A: 2/10 (20%), 2/29 (7%), 65%, not significant
